The record followed here is patent US20210317140A1, “Heterocyclic Compounds and Methods of Use” (MEDIVATION TECHNOLOGIES, INC, priority 2013, published 2021).

One experiment concerns the target T1, BTK (Homo sapiens, UniProt Q06187).
T1 construct: purchased Reaction Biology Corporation
In words: BTK kinase assay (HotSpot, 33P ATP). In kind it is biochemical. As to conditions: for BTK @ 0.1 μM (% Inh): 0.1 μM compound; for BTK @ 0.1 μM (% Inh) / BTK @ 1 μM (% Inh) / BTK @ 0.01 μM (% Inh): 10 μM ATP; for BTK @ 1 μM (% Inh): 1 μM compound; for IC50: 10 dose IC50, 10 μM ATP; for BTK @ 0.01 μM (% Inh): 0.01 μM compound. In a few lines:
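In 20 mM Hepes (pH 7.5) with 10 mM MgCl2, 1 mM EGTA, 0.1 mM Na3VO4, 2 mM DTT, 0.02% Brij35, 0.02 mg/mL BSA and 1% DMSO, kinase and substrate were exposed to ten compound doses for 15–20 min.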

Another experiment deals with T2, PI3Kδ (Homo sapiens, UniProt O00329).
T2 construct: purchased Reaction Biology Corporation
T2 sequence (O00329 whole entry): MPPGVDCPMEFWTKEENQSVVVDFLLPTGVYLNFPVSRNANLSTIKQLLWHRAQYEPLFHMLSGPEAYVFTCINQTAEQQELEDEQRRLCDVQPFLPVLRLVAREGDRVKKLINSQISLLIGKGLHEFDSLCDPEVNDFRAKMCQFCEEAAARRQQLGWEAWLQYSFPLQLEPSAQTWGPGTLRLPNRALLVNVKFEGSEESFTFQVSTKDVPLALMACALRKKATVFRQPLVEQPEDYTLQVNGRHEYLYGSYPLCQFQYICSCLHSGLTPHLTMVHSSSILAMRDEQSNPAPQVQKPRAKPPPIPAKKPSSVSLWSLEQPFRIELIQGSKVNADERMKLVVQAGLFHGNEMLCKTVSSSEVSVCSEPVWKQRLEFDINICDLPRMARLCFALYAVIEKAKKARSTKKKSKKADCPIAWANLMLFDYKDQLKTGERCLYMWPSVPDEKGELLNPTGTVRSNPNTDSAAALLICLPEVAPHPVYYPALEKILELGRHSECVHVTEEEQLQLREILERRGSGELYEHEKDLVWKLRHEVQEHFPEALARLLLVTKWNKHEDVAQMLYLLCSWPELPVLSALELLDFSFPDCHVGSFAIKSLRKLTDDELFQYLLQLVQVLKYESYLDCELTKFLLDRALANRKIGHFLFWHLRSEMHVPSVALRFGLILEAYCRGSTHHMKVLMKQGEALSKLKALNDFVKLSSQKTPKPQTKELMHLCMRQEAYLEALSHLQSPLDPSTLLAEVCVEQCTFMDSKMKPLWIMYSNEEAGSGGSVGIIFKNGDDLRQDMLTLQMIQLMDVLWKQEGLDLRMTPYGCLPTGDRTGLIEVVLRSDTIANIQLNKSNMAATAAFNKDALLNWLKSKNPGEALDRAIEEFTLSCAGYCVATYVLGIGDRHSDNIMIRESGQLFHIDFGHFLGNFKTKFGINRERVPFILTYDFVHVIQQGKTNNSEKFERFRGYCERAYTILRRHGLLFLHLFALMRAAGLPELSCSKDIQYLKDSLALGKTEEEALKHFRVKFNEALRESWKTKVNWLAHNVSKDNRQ
T2 sequence (P27986 whole entry partner): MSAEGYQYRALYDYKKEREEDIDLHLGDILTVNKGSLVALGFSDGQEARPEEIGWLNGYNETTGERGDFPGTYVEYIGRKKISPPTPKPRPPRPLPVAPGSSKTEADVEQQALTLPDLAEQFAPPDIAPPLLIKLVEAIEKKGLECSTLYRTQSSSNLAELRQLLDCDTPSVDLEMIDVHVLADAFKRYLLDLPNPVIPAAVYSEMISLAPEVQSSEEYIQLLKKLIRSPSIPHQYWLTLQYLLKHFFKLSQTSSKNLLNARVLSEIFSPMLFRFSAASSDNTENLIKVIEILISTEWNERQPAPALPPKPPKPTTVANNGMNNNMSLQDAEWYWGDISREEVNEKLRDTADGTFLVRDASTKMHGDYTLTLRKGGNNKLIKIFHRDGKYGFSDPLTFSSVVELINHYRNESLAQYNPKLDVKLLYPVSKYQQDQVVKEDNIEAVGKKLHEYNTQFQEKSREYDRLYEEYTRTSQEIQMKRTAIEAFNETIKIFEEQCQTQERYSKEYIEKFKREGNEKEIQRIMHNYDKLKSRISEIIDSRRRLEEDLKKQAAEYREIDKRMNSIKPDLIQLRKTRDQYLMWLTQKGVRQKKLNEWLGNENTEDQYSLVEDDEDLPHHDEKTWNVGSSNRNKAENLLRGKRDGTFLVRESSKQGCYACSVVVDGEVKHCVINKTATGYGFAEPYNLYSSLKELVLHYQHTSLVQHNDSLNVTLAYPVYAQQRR
Description: PI3Kδ kinase assay (HTRF, PIP3 detection). In kind it is biochemical. As to conditions: for PI3Kδ @ 0.1 μM (% Inh): 0.1 μM compound; for PI3Kδ @ 0.1 μM (% Inh) / PI3Kδ @ 1 μM (% Inh) / PI3Kδ @ 0.01 μM (% Inh): 10 μM ATP; for PI3Kδ @ 1 μM (% Inh): 1 μM compound; for IC50: 10 dose IC50, 10 μM ATP; for PI3Kδ @ 0.01 μM (% Inh): 0.01 μM compound. In a few lines: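 PIP3 formation read by loss of energy transfer as it displaces biotin-PIP3 from a Eu anti-GST/GST-PH/streptavidin-APC complex, calibrated against PIP3 standards.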
For orientation: Time-resolved FRET reads energy transfer from a long-lived donor to a nearby acceptor.

Another experiment deals with CD69+B220+ cells. Description: B cell activation assay (IgD-stimulated splenocytes, CD69+B220+ cells by FACS). As to conditions: mouse splenocytes, IgD 3 μg/mL, 4 h; for CD69 @ 100 nM (% Inh): 100 nM compound. In kind it is cell-based. On the procedure:
1 Female mouse approximately 2 months old was euthanized with CO2 and the spleen removed. The tissue was homogenized with a polished glass microscope slide. The cells were collected in 5 mL complete medium (RPMI+10% FBS+pen/strep), placed in a 15 mL falcon tube and centrifuged at 500×g for 5 min. The supernatant was discarded and the pellet was resuspended in 3 mL of ACK lysis buffer (NH4Cl 0.17M, KHCO3 10 mM, EDTA-Na2 0.1 mM, pH 7.2), incubated at 37° C. for 5 min. 2 mL complete medium was added and the mixture centrifuged at 500×g for 5 min. The supernatant was discarded and the pellet resuspended in 1 mL complete medium. The mixture was passed through a […] cell strainer and collect in 50 mL falcon tube. Enough medium was added to have a total of 10 mL. The cells were counted and seeded in 24 or 48-well plate in 1 mL complete medium at 10^6 cells/mL. The plate was placed in a 37° C. incubator for 15 min. The cells were treated for 30 min at 37° C. with 100 nM test compound dissolved in 100% DMSO. 3 μL IgD (Accurate chemical and scientific corp.) was added at a final concentration of 3 μg/mL and the mixture incubated at 37° C. for 4 h. The cells were collected in 1.5 mL eppendorf tubes, centrifuged at 500×g for 5 min and then resuspended in 100 μL of PBS+2% FBS. The following antibodies were added: α-B220 PE (pharmingen #553090), α-CD69 APC (pharmingen #60689), live/dead fixable aqua dead cell stain kit (life technologies #L34957) all at 1:300, and the mixture incubated for 15 min at 4° C. in the dark. To this was added 900 μL of PBS+2% FBS and the mixture centrifuged at 500×g for 5 min. The supernatant was removed and the pellet resuspended in 300 μL of PBS+2% FBS and mixed well. The mixture was transferred to a cytometer tube. The samples were run in the FACS Canto II cytometer and quantified by the number of CD69+B220+ cells as a percentage of the total number of B220+ alive cells.
For orientation: Flow cytometry measures light scatter and fluorescence of single cells or particles in a stream.

T1 sequence (Q06187 whole entry): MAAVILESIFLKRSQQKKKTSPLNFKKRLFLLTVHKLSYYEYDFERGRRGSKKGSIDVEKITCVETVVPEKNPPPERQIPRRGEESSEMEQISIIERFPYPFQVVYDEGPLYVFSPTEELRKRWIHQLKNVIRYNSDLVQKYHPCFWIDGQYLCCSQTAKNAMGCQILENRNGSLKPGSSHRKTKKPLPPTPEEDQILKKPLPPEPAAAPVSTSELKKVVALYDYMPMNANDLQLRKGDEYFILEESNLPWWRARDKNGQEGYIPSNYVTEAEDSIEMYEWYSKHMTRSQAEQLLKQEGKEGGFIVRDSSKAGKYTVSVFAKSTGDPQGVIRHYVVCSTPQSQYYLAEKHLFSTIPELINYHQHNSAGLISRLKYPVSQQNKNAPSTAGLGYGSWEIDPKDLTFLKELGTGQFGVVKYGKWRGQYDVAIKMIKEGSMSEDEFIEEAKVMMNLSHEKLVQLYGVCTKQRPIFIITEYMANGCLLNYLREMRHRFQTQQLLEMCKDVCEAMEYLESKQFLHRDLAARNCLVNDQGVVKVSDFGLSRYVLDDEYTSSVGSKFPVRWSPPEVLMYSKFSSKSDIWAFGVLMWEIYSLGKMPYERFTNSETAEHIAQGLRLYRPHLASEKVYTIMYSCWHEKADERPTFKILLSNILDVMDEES

For `Nc1ncnc2c1c(-c1cc(O)c(Cl)cc1Cl)nn2C1Cc2ccccc2C1` [Compound No. 103, 5-[4-amino-1-(2,3-dihydro-1H-inden-2-yl)-1H-pyrazolo[3,4-d]pyrimidin-3-yl]-2,4-dichlorophenol], on BTK, the “BTK @ 0.1 μM (% Inh)” value was found to be 47.24 % Inh, the “BTK @ 1 μM (% Inh)” value was 89.82 % Inh and the IC50 stood at 162 nM. In addition, at PI3Kδ, the “PI3Kδ @ 0.1 μM (% Inh)” value stood at 72.71 % Inh, the “PI3Kδ @ 1 μM (% Inh)” value is recorded as 94.52 % Inh and the IC50 stood at 45.7 nM. Moreover, in the experiment on CD69+B220+ cells, the “CD69 @ 100 nM (% Inh)” value is on record as 25.06 ± 22.54 (n = 5) % Inh.
With `Nc1cc(-c2nn(C3Cc4ccccc4C3)c3ncnc(N)c23)cnc1Cl` [Compound No. 104, 5-[4-amino-1-(2,3-dihydro-1H-inden-2-yl)-1H-pyrazolo[3,4-d]pyrimidin-3-yl]-2-chloropyridin-3-amine], at BTK, the “BTK @ 0.1 μM (% Inh)” value is reported as 72.07 % Inh, the “BTK @ 1 μM (% Inh)” value came out at 94.25 % Inh and half-maximal inhibition (IC50) required 54.9 nM. At PI3Kδ, the “PI3Kδ @ 0.1 μM (% Inh)” value amounted to 38.16 % Inh, the “PI3Kδ @ 1 μM (% Inh)” value came out at 82.84 % Inh and the IC50 came out at 282 nM. In addition, the “CD69 @ 100 nM (% Inh)” value in the experiment on CD69+B220+ cells is on record as 28.78 ± 19.62 (n = 5) % Inh.
Turning to `COc1cc(-c2nn(C3Cc4ccccc4C3)c3ncnc(N)c23)cc(C#N)c1OC` [Compound No. 105, 5-[4-amino-1-(2,3-dihydro-1H-inden-2-yl)-1H-pyrazolo[3,4-d]pyrimidin-3-yl]-2,3-dimethoxybenzonitrile], at BTK, the “BTK @ 0.1 μM (% Inh)” value turned out to be 27.50 % Inh and the “BTK @ 1 μM (% Inh)” value is recorded as 59.18 % Inh. Also, at PI3Kδ, the “PI3Kδ @ 0.1 μM (% Inh)” value is on record as 16.0 % Inh and the “PI3Kδ @ 1 μM (% Inh)” value stood at 34.72 % Inh. Besides, the “CD69 @ 100 nM (% Inh)” value in the experiment on CD69+B220+ cells is reported as 24.25 ± 33.84 (n = 5) % Inh.
On to `Nc1ncnc2c1c(-c1cc(O)cc(F)c1)nn2C1CCc2cc(F)ccc21` (centres unmarked) [compound 42, 3-[4-amino-1-(5-fluoro-2,3-dihydro-1H-inden-1-yl)-1H-pyrazolo[3,4-d]pyrimidin-3-yl]-5-fluorophenol], for which the “BTK @ 0.1 μM (% Inh)” value on BTK worked out at 23.06 % Inh. For the same compound, at PI3Kδ, the “PI3Kδ @ 0.1 μM (% Inh)” value is recorded as 70.85 % Inh. In addition, the “CD69 @ 100 nM (% Inh)” value with CD69+B220+ cells is recorded as 22.71 ± 5.53 (n = 3) % Inh.
Consider `Nc1ncnc2c1c(-c1ccc3[nH]c(O)nc3c1)nn2C1Cc2ccccc2C1` [compound 108, 5-[4-amino-1-(2,3-dihydro-1H-inden-2-yl)-1H-pyrazolo[3,4-d]pyrimidin-3-yl]-1H-1,3-benzodiazol-2-ol], for which, on BTK, the “BTK @ 0.01 μM (% Inh)” value is reported as 1.76 % Inh and the “BTK @ 0.1 μM (% Inh)” value is reported as 6.6 % Inh. Besides, on PI3Kδ, the “PI3Kδ @ 0.01 μM (% Inh)” value amounted to 9.28 % Inh and the “PI3Kδ @ 0.1 μM (% Inh)” value amounted to 21.98 % Inh. The “CD69 @ 100 nM (% Inh)” value with CD69+B220+ cells is on record as 11.99 ± 7.58 (n = 3) % Inh.
Taken in the same sequence, the figures for `Nc1cc(-c2nn(C3Cc4ccccc4C3)c3ncnc(N)c23)cc(F)c1F` [compound 109, 3-(3-amino-4,5-difluorophenyl)-1-(2,3-dihydro-1H-inden-2-yl)-1H-pyrazolo[3,4-d]pyrimidin-4-amine] were 14.85 % Inh, 63.35 % Inh, 2.46 % Inh, 26.17 % Inh and 10.19 ± 14.12 (n = 3) % Inh.
Turning to `NC(=O)c1ccc(-c2nn(C3Cc4ccccc4C3)c3ncnc(N)c23)cc1O` [compound 111, 4-[4-amino-1-(2,3-dihydro-1H-inden-2-yl)-1H-pyrazolo[3,4-d]pyrimidin-3-yl]-2-hydroxybenzamide], on BTK, the “BTK @ 0.01 μM (% Inh)” value is reported as 6.49 % Inh and the “BTK @ 0.1 μM (% Inh)” value was found to be 17.47 % Inh. Further, at PI3Kδ, the “PI3Kδ @ 0.01 μM (% Inh)” value was found to be 64.38 % Inh and the “PI3Kδ @ 0.1 μM (% Inh)” value amounted to 91.28 % Inh. For the same compound, the “CD69 @ 100 nM (% Inh)” value in the experiment with CD69+B220+ cells is on record as 57.39 ± 5.05 (n = 3) % Inh. The same compound returned an IC50 in the experiment on CD69+B220+ cells (Splenocyte) of 118 ± 11.1 nM.
With `CNc1cc(-c2cn(C3Cc4ccccc4C3)c3ncnc(N)c23)cc(F)c1F` [compound 113, 5-[3,4-difluoro-5-(methylamino)phenyl]-7-(2,3-dihydro-1H-inden-2-yl)-7H-pyrrolo[2,3-d]pyrimidin-4-amine], at BTK, the “BTK @ 0.01 μM (% Inh)” value is reported as 8.12 % Inh and the “BTK @ 0.1 μM (% Inh)” value is given as 38.11 % Inh. On PI3Kδ, the “PI3Kδ @ 0.01 μM (% Inh)” value is 20.77 % Inh and the “PI3Kδ @ 0.1 μM (% Inh)” value is on record as 39.52 % Inh. In the experiment on CD69+B220+ cells, the “CD69 @ 100 nM (% Inh)” value was 11.61 ± 11.81 (n = 3) % Inh.
`Nc1ncnc2c1c(-c1cc(O)c(F)c(F)c1)cn2C1CCc2ccccc2C1` (centres unmarked) [compound 114, 5-[4-amino-7-(1,2,3,4-tetrahydronaphthalen-2-yl)-7H-pyrrolo[2,3-d]pyrimidin-5-yl]-2,3-difluorophenol]: on BTK, the “BTK @ 0.01 μM (% Inh)” value turned out to be 41.16 % Inh, the “BTK @ 0.1 μM (% Inh)” value is given as 86.29 % Inh and half-maximal inhibition (IC50) required 20.2 nM. On PI3Kδ, the “PI3Kδ @ 0.01 μM (% Inh)” value is reported as 41.19 % Inh, the “PI3Kδ @ 0.1 μM (% Inh)” value was 84.46 % Inh and the IC50 stood at 23.2 nM. Also, the “CD69 @ 100 nM (% Inh)” value with CD69+B220+ cells was 10.19 ± 13.54 (n = 3) % Inh.
Turning to `NC(=O)c1cc(-c2cn(C3Cc4ccccc4C3)c3ncnc(N)c23)cc(O)c1F` [compound 116, 5-[4-amino-7-(2,3-dihydro-1H-inden-2-yl)-7H-pyrrolo[2,3-d]pyrimidin-5-yl]-2-fluoro-3-hydroxybenzamide], on BTK, the “BTK @ 0.01 μM (% Inh)” value was 10.59 % Inh, the “BTK @ 0.1 μM (% Inh)” value came to 47.8 % Inh and half-maximal inhibition (IC50) was put at 71.8 nM. At PI3Kδ, the “PI3Kδ @ 0.01 μM (% Inh)” value came out at 6.65 % Inh, the “PI3Kδ @ 0.1 μM (% Inh)” value came out at 70.68 % Inh and the IC50 came out at 77.9 nM. Besides, the “CD69 @ 100 nM (% Inh)” value with CD69+B220+ cells was 20.48 ± 16.90 (n = 3) % Inh.
As for `Nc1ncnc2c1c(-c1cc(O)c(F)c(Cl)c1)nn2C1Cc2ccccc2C1` [compound 117, 5-[4-amino-1-(2,3-dihydro-1H-inden-2-yl)-1H-pyrazolo[3,4-d]pyrimidin-3-yl]-3-chloro-2-fluorophenol], at BTK, the “BTK @ 0.01 μM (% Inh)” value is reported as 21.31 % Inh and the “BTK @ 0.1 μM (% Inh)” value stood at 67.32 % Inh. Besides, on PI3Kδ, the “PI3Kδ @ 0.01 μM (% Inh)” value is on record as 75.86 % Inh and the “PI3Kδ @ 0.1 μM (% Inh)” value is recorded as 91.69 % Inh. In addition, in the experiment with CD69+B220+ cells, the “CD69 @ 100 nM (% Inh)” value is recorded as 46.59 ± 11.89 (n = 3) % Inh.
Taken in the same sequence, the figures for `Nc1ncnc2c1c(-c1cc(O)c(Cl)c(Cl)c1)nn2C1Cc2ccccc2C1` [compound 118, 5-[4-amino-1-(2,3-dihydro-1H-inden-2-yl)-1H-pyrazolo[3,4-d]pyrimidin-3-yl]-2,3-dichlorophenol] were 19.01 % Inh, 65.15 % Inh, 79.16 % Inh, 95.72 % Inh and 44.32 ± 10.35 (n = 3) % Inh.
The matching figures for `Nc1ncnc2c1c(-c1cc(O)c(F)c(F)c1)nn2C1CCc2ccccc2C1` (centres unmarked) [compound 119, 5-[4-amino-1-(1,2,3,4-tetrahydronaphthalen-2-yl)-1H-pyrazolo[3,4-d]pyrimidin-3-yl]-2,3-difluorophenol]: 21.71 % Inh, 70.28 % Inh, 70.35 % Inh, 91.77 % Inh and 47.52 ± 5.57 (n = 3) % Inh.
On to `N#Cc1cc(-c2nn(C3Cc4ccccc4C3)c3ncnc(N)c23)cc(O)c1F` [compound 120, 5-[4-amino-1-(2,3-dihydro-1H-inden-2-yl)-1H-pyrazolo[3,4-d]pyrimidin-3-yl]-2-fluoro-3-hydroxybenzonitrile], for which, at BTK, the “BTK @ 0.01 μM (% Inh)” value is recorded as 93.67 % Inh and the “BTK @ 0.1 μM (% Inh)” value turned out to be 1.41 % Inh. Besides, at PI3Kδ, the “PI3Kδ @ 0.01 μM (% Inh)” value is recorded as 77.84 % Inh and the “PI3Kδ @ 0.1 μM (% Inh)” value is given as 91.68 % Inh. Further, the “CD69 @ 100 nM (% Inh)” value with CD69+B220+ cells is given as −99.28 ± 22.26 (n = 3) % Inh.

One may read the IC50 as the point on the concentration scale where inhibition reaches its midpoint.
